From patent publication US8258134B2, “Pyridazinone glucokinase activators” (Hoffmann-La Roche Inc., priority 2008, dated 2012)

What follows are molecules tested against T1, Recombinant human liver GK1 (GST-GK) (Homo sapiens, UniProt P35557) (assay: Glucokinase in vitro assay (G6PDH-coupled NADH generation, OD340)). Conditions: 30 uM test compound, 5 mM D-glucose.
T1 construct: made in house; host or cells: E. coli
T1 sequence (P35557 1-466 isoform P35557-2): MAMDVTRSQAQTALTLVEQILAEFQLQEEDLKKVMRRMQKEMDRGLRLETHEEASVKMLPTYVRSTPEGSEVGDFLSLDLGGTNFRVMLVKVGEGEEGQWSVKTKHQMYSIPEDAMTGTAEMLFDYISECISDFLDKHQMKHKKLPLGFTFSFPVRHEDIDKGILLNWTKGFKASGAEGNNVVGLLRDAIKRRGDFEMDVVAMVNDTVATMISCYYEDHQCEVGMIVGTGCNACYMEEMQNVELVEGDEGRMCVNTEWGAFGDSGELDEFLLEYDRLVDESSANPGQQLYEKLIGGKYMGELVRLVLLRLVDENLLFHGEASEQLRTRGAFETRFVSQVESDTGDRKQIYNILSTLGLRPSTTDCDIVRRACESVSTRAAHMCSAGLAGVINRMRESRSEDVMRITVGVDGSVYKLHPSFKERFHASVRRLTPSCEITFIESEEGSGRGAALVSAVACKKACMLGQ
Type: biochemical
Experimental: Glucokinase In Vitro Assay Protocol: Glucokinase (GK) was assayed by coupling the production of glucose-6-phosphate to the generation of NADH with glucose-6-phosphate dehydrogenase (G6PDH, 0.75-1 k units/mg; Boehringer Mannheim, Indianapolis, Ind.) from Leuconostoc mesenteroides as the coupling enzyme (Scheme 2):
Recombinant human liver GK1 was expressed in E. coli as a glutathione S-transferase fusion protein (GST-GK) [Liang et al, 1995] and was purified by chromatography over a glutathione-Sepharose 4B affinity column using the procedure provided by the manufacturer (Amersham Pharmacia Biotech, Piscataway, N.J.).
The assay was conducted at 30° C. in a flat bottom 96-well tissue culture plate from Costar (Cambridge, Mass.) with a final incubation volume of 120 μL. The incubation reaction contained the following: 25 mM Hepes buffer (pH 7.1), 25 mM KCl, 5 mM D-glucose, 1 mM ATP, 1.8 mM NAD, 2 mM MgCl2, 1 μM sorbitol-6-phosphate, 1 mM dithiothreitol, test drug or 10% DMSO, ˜7 units/ml G6PDH, and GK (see below). All organic reagents were >98% pure and were from Boehringer Mannheim with the exceptions of D-glucose and Hepes which were from Sigma Chemical Co, St Louis, Mo. Test compounds were dissolved in DMSO and were added to the incubation reaction minus GST-GK in a volume of 12 μL to yield a final DMSO concentration of 10%. This mix was pre-incubated in the temperature controlled chamber of a SPECTRAmax 250 microplate spectrophotometer (Molecular Devices Corporation, Sunnyvale, Calif.) for 10 minutes to allow temperature equilibrium and then the reaction was started by the addition of 20 μL GST-GK.
After addition of enzyme, the increase in optical density (OD) at 340 nm was monitored spectrophotometrically to determine the rate of change (OD340 per min). The GK activity (OD340/min) in control wells (10% DMSO minus GK activators) was compared with the activity in wells containing test GK activators, and the concentration of activator that produced a 50% increase in the activity of GK, i.e., the SC1.5, was calculated. The table below provides the in vitro glucokinase activity for the compounds in the Examples: […]
With `CC(C)CC(C(=O)Nc1ccn(C[C@@H](O)CO)n1)n1ncc(Nc2ccccc2Cl)cc1=O` (stereo partly drawn) [Example 122, 2-[4-(2-Chloro-phenylamino)-6-oxo-6H-pyridazin-1-yl]-4-methyl-pentanoic acid [1-((R)-2,3-dihydroxy-propyl)-1H-pyrazol-3-yl]-amide] the “fold activation @ 30 uM” value was 1.36 fold.

Same assay, conditions: 5 mM D-glucose, 30° C., pH 7.1, 10% DMSO
`CC(C)(O)Cn1ccc(NC(=O)[C@@H](CC2CCCC2)n2ncc(Oc3cccc4c3CCCC4)cc2=O)n1` [Example 17B, (R)-3-Cyclopentyl-N-[1-(2-hydroxy-2-methyl-propyl)-1H-pyrazol-3-yl]-2-[6-oxo-4-(5,6,7,8-tetrahydro-naphthalen-1-yloxy)-6H-pyridazin-1-yl]-propionamide] was tested, and the “SC1.5 average (concentration of activator that produced a 50% increase in the activity of GK)” value was 9.14 µM. With `CC(C)(O)Cn1ccc(NC(=O)[C@@H](CC2CCCCC2)n2ncc(Oc3c(F)cccc3F)cc2=O)n1` [Example 51B, (R)-3-Cyclohexyl-2-[4-(2,6-difluoro-phenoxy)-6-oxo-6H-pyridazin-1-yl]-N-[1-(2-hydroxy-2-methyl-propyl)-1H-pyrazol-3-yl]-propionamide] the “SC1.5 average (concentration of activator that produced a 50% increase in the activity of GK)” value was 0.838 µM. `CCC(CC)CC(C(=O)Nc1ccn(C[C@@H](O)CO)n1)n1ncc(Oc2c(F)cccc2F)cc1=O` (stereo partly drawn) [Example 64, 2-[4-(2,6-Difluoro-phenoxy)-6-oxo-6H-pyridazin-1-yl]-4-ethyl-hexanoic acid [1-((R)-2,3-dihydroxy-propyl)-1H-pyrazol-3-yl]-amide] was tested, and the “SC1.5 average (concentration of activator that produced a 50% increase in the activity of GK)” value was 0.551 µM. In the case of `O=C(Nc1ccn(C[C@@H](O)CO)n1)C(CC1CCCC1)n1ncc(OCCc2ccccc2Cl)cc1=O` (stereo partly drawn) [Example 114, 2-{4-[2-(2-Chloro-phenyl)-ethoxy]-6-oxo-6H-pyridazin-1-yl}-3-cyclopentyl-N-[1-((R)-2,3-dihydroxy-propyl)-1H-pyrazol-3-yl]-propionamide], the “SC1.5 average (concentration of activator that produced a 50% increase in the activity of GK)” value is reported as 1.656 µM. In the case of `CC(C)(O)Cn1ccc(NC(=O)[C@@H](CC2CCCC2)n2ncc(Oc3ccc(F)cc3F)cc2=O)n1` [Example 32B, (R)-3-Cyclopentyl-2-[4-(2,4-difluoro-phenoxy)-6-oxo-6H-pyridazin-1-yl]-N-[1-(2-hydroxy-2-methyl-propyl)-1H-pyrazol-3-yl]-propionamide], the “SC1.5 average (concentration of activator that produced a 50% increase in the activity of GK)” value is reported as 26.185 µM. With `COc1ccc(Oc2cnn(C(CC3CCCC3)C(=O)Nc3ccn(CC(C)(C)O)n3)c(=O)c2)cc1` (centres unmarked) [Example 15, 3-Cyclopentyl-N-[1-(2-hydroxy-2-methyl-propyl)-1H-pyrazol-3-yl]-2-[4-(4-methoxy-phenoxy)-6-oxo-6H-pyridazin-1-yl]-propionamide] the “SC1.5 average (concentration of activator that produced a 50% increase in the activity of GK)” value was 1.025 µM. In the case of `CC(C)(O)Cn1ccc(NC(=O)C(CC2CCCCC2)n2ncc(Oc3ccc(OC(F)(F)F)cc3Cl)c(Cl)c2=O)n1` (centres unmarked) [Example 130, 2-[5-Chloro-4-(2-chloro-4-trifluoromethoxy-phenoxy)-6-oxo-6H-pyridazin-1-yl]-3-cyclohexyl-N-[1-(2-hydroxy-2-methyl-propyl)-1H-pyrazol-3-yl]-propionamide], the “SC1.5 average (concentration of activator that produced a 50% increase in the activity of GK)” value is reported as 10.224 µM. With `CC(C)(O)Cn1ccc(NC(=O)[C@H](CC2CCCC2)n2ncc(Oc3cccc4c3CCCC4)cc2=O)n1` [Example 17A, (S)-3-Cyclopentyl-N-[1-(2-hydroxy-2-methyl-propyl)-1H-pyrazol-3-yl]-2-[6-oxo-4-(5,6,7,8-tetrahydro-naphthalen-1-yloxy)-6H-pyridazin-1-yl]-propionamide] the “SC1.5 average (concentration of activator that produced a 50% increase in the activity of GK)” value was 0.051 µM. With `O=C(Nc1ccn(CCO)n1)C(CC1CCOCC1)n1ncc(Oc2c(F)cccc2F)cc1=O` (centres unmarked) [Example 53, 2-[4-(2,6-Difluoro-phenoxy)-6-oxo-6H-pyridazin-1-yl]-N-[1-(2-hydroxy-ethyl)-1H-pyrazol-3-yl]-3-(tetrahydro-pyran-4-yl)-propionamide] the “SC1.5 average (concentration of activator that produced a 50% increase in the activity of GK)” value was 0.469 µM. `CC(C)CC(C(=O)Nc1ccn(C[C@@H](O)CO)n1)n1ncc(Nc2ccccc2Cl)cc1=O` (stereo partly drawn) [Example 122, 2-[4-(2-Chloro-phenylamino)-6-oxo-6H-pyridazin-1-yl]-4-methyl-pentanoic acid [1-((R)-2,3-dihydroxy-propyl)-1H-pyrazol-3-yl]-amide] was tested, and the “SC1.5 average (concentration of activator that produced a 50% increase in the activity of GK)” value was > 30 µM.
